The conditions of data set [1]: one human decedent of five postmortem cases; cited from earlier work.
For data set [2] the following is noted: for concentration at 6 h: pig, iv, 200 µg/kg BW.
For data set [3] the following is noted: pigs, previous study; cited from earlier work.
The conditions of data set [4]: cited from earlier work.
For data set [5] the following is noted: human fatal case, cited from earlier work.
For data set [6] the following is noted: mice (n = 5), exposure to Magic Gold smoke (3.6% JWH-018, 5.7% JWH-073); cited from earlier work.
Setting [7] is: pigs, 6 h after single i.v. 200 µg/kg BW.

What is called LogP is the decadic logarithm of the partition coefficient of the neutral form, usually between octanol and water.

Values joined by “and” are separate entries in the source; they are usually repeats but may differ in a detail not shown here. Identical values can stand only once. Like-named read-outs stand apart in the source and are kept apart here.

With `CCCCCc1cc(O)c2c(c1)OC(C)(C)[C@@H]1CCC(C)=C[C@@H]21` [THC, ∆9-tetrahydrocannabinol], the “Peak concentration in muscle tissue” value in data set [1] was 40 ng/g. Further, the concentration at 6 h in data set [2] (bile) was 77 ± 83 ng/g; in data set [2] (brain (cerebellum)), 24 ± 5.8 ng/g; in data set [2] (brain (cerebrum)), 12 ± 3.8 ng/g; in data set [2] (heart), 17 ± 7 ng/g; in data set [2] (kidney (left)), 24 ± 11 ng/g; in data set [2] (kidney (right)) it was 21 ± 16 ng/g. Further, the concentration at 6 h in data set [2] (liver) worked out at 18 ± 3.7 ng/g; in data set [2] (lung (left)), 61 ± 50 ng/g; in data set [2] (lung (right)), 69 ± 37 ng/g; in data set [2] (psoas muscle), 9.1 ± 3.3 ng/g; in data set [2] (skeletal muscle) it was 16 ± 0.94 ng/g; in data set [2] (spleen), 7.1 ± 3.8 ng/g. Further, in data set [2] (setting [7]), the Detection in dura result is “not detected”. Besides, in data set [2] (setting [7]), the “Detection in vitreous humor (qualitative analysis)” value is reported as “not detected”. Also, the “Serum concentration six hours after administration” value in data set [3] is given as 7.1 ± 4.3 ng/mL. Moreover, in data set [4], the log partition coefficient (LogP) is recorded as 6.7.

For `Cc1ccc(C(=O)c2cn(CCCCCF)c3ccccc23)c2ccccc12` [MAM-2201], in data set [5] (postmortem interval about four days), the “Concentration in adipose tissue” value was 1,535 ng/g. In addition, in data set [5] (postmortem), the Concentration in brain is 4.3 ng/g, the “Concentration in heart blood” value is 12.4 ng/mL, the Concentration in kidney is 11.2 ng/g and the Concentration in liver was 18.1 ng/g.

Regarding `CCCCCn1cc(C(=O)c2cccc3ccccc23)c2ccccc21` [JWH-018, naphthalen-1-yl-(1-pentylindol-3-yl)methanone], the “Concentration in brain specimens twenty hours post-exposure” value in data set [6] was 19 ± 9 ng/g.

Take `CCc1ccc(C(=O)c2cn(CCCCC(=O)O)c3ccccc23)c2ccccc12` [JWH-210-COOH, JWH-210-pentanoic acid]: in data set [2] (pigs, 6 h after i.v. 200 µg/kg BW JWH-210, detectable in two cases), the “Concentration in kidney specimens, individual cases” value is 0.5 ng/g and 1 ng/g.

Regarding hydroxypentyl-RCS-4 [HO-RCS-4], the “Concentration in skeletal muscle, individual pigs” value in data set [2] (pigs, 6 h after i.v. 200 µg/kg BW RCS-4, only in two pigs) is 5.7 ng/g and 1.6 ng/g. In addition, the log partition coefficient (LogP) in data set [4] is 4.08.

Take hydroxypentyl-JWH-210 [HO-JWH-210]: the “Concentration in abdominal adipose tissue, individual pig” value in data set [2] (pigs, 6 h after i.v. 200 µg/kg BW JWH-210, present in one pig only) is reported as 6 ng/g. Besides, in data set [2] (pigs, 6 h after i.v. 200 µg/kg BW JWH-210, present in two pigs only), the “Concentration in perirenal adipose tissue, individual pigs” value is 4.5 ng/g and 9 ng/g.

As for `COc1ccc(C(=O)c2cn(CCCCC(=O)O)c3ccccc23)cc1` [RCS-4-COOH, RCS-4-pentanoic acid], in data set [2] (pigs, 6 h after i.v. 200 µg/kg BW RCS-4, two pigs), the “Concentration in bile fluid, individual pigs” value is 47 ng/g and 154 ng/g.

For the compound `CCCCCn1cc(C(=O)c2ccc(CC)c3ccccc23)c2ccccc21` [JWH-210, 4-ethylnaphthalen-1-yl-(1-pentylindol-3-yl)methanone], the concentration at 6 h in data set [2] (bile) was determined as 26 ± 19 ng/g; in data set [2] (brain (cerebellum)), 32 ± 9 ng/g; in data set [2] (brain (cerebrum)), 20 ± 6.8 ng/g; in data set [2] (dura), 1.7 ± 0.8 ng/g; in data set [2] (heart), 19 ± 6.1 ng/g; in data set [2] (kidney (left)) it was 43 ± 34 ng/g. Moreover, the concentration at 6 h in data set [2] (kidney (right)) was 53 ± 45 ng/g; in data set [2] (liver), 14 ± 6.2 ng/g; in data set [2] (lung (left)), 8.6 ± 4.4 ng/g; in data set [2] (lung (right)), 6.9 ± 2.1 ng/g; in data set [2] (psoas muscle), 20 ± 9.5 ng/g; in data set [2] (skeletal muscle), 21 ± 8 ng/g. Moreover, the concentration at 6 h in data set [2] (spleen) is 11 ± 6.8 ng/g. Further, the “Detection in vitreous humor (qualitative analysis)” value in data set [2] (setting [7]) was “positive results”. The “Serum concentration six hours after administration” value in data set [3] is 3.1 ± 1.1 ng/mL.

Source of the values: paper PMC5771047 (Current Neuropharmacology, 2017).
